Test results published in PMC7524204 (Clinical cancer research : an official journal of the …, 2016).

Experiments:
8505C cells [1] = assay: Mouse orthotopic xenograft model of ATC, survival; conditions: for Median Survival: Nu/Nu mice, thyroid orthotopic 8505C, control 22 days; for Hazard ratio: relative Control (untreated) mice, orthotopic 8505C
[2] = for Histological evidence of toxicity: GI, affected/total (fraction) / Histological evidence of toxicity: Heart, affected/total (fraction) / Histological evidence of toxicity: Liver, Glycogen, affected/total (fraction) / Histological evidence of toxicity: Liver, Vaculation, affected/total (fraction) / Histological evidence of toxicity: Pancreas, affected/total (fraction): C57BL6/J; for Histological evidence of toxicity: GI, affected/total (fraction) / Histological evidence of toxicity: Heart, affected/total (fraction) / Histological evidence of toxicity: Liver, Glycogen, affected/total (fraction) / Histological evidence of toxicity: Liver, Vaculation, affected/total (fraction) / Histological evidence of toxicity: Pancreas, affected/total (fraction) / Lethality or lethargy: 7 days; for Lethality or lethargy: super-therapeutic doses
THJ-29T = assay: 72-hr survival dose-response of ATC cell line THJ-29T; assay type: cell-based; conditions: Homo sapiens
NFκB-p65 (RelA) = assay: Western blot of NFκB-p65/RelA expression; assay type: cell-based, human; conditions: 8505C and THJ-16T cells, S 10 µM, Q 20 µM
THJ-21T = assay: 72-hr survival dose-response of ATC cell line THJ-21T; assay type: cell-based; conditions: Homo sapiens
THJ-16T = assay: 72-hr survival dose-response of ATC cell line THJ-16T
8505C = assay: Flow cytometric sub-G1 programmed cell death; assay type: cell-based, human; conditions: short-term treatment, S10, Q20, S10Q20
8505C cells [3] = assay: CellTiter-Glo dose-response in 8505C cells after siRNA knockdown; assay type: cell-based, human; conditions: for IC50: Homo sapiens, 72 h

Structure (SMILES)	Median Survival (8505C cells [1])	Hazard ratio (8505C cells [1])	Histological evidence of toxicity: GI, affected/total (fraction) ([2]; mouse, in vivo)	Histological evidence of toxicity: Heart, affected/total (fraction) ([2]; mouse, in vivo)	Histological evidence of toxicity: Liver, Glycogen, affected/total (fraction) ([2]; mouse, in vivo)	Histological evidence of toxicity: Liver, Vaculation, affected/total (fraction) ([2]; mouse, in vivo)	Histological evidence of toxicity: Pancreas, affected/total (fraction) ([2]; mouse, in vivo)	Lethality or lethargy [2]	IC50 (THJ-29T)	IC50 (THJ-21T)	sub-G1 DNA (8505C)	further results
COc1cccc2c1C(=O)c1c(O)c3c(c(O)c1C2=O)C[C@@](O)(C(=O)CO)C[C@@H]3O[C@H]1C[C@H](N)[C@H](O)[C@H](C)O1 [Doxorubicin]	31 days	0.709	4/5 (0.80)	0/5 (0)	3/5 (0.60)	4/5 (0.80)	4/5 (0.80)	No lethality or lethargy	–	–	–	Level of platelets in blood ([2]; mouse, in vivo): increased level; Number of RBC's and hemoglobin (Hgb) ([2]; mouse, in vivo): reduction
CCN(CC)CCCC(C)Nc1c2ccc(Cl)cc2nc2ccc(OC)cc12 (centres unmarked) [Quinacrine]	32 days	–	0/4 (0)	1/5 (0.20)	3/4 (0.75)	3/4 (0.75)	0/4 (0)	–	12.7 µM	15.4 µM	Increased	Expression of NFκB-p65 (RelA) (NFκB-p65 (RelA)): inhibited; IC50 (THJ-16T; Homo sapiens, 72 h): 18.4 µM; Impact of p65/RelA siRNA on survival dose-response relationship (8505C cells [3]): did not have any significant impact; Effect of Mcl-1 knockdown on IC50 (8505C cells [3]; Mcl-1 siRNA): did not affect
CNC(=O)c1cc(Oc2ccc(NC(=O)Nc3ccc(Cl)c(C(F)(F)F)c3)cc2)ccn1 [Sorafenib]	26 days	0.846	0/5 (0)	0/5 (0)	4/5 (0.80)	4/5 (0.80)	5/5 (1.00)	No lethality or lethargy	4.5 µM	12.4 µM	Increased	IC50 (THJ-16T; THJ-16T, 72-hr survival): 31 µM; Increased sensitization by p65/RelA siRNA compared to Scr siRNA (8505C cells [3]): approximately 2 fold; IC50 (8505C cells [3]; scrambled (Scr) siRNA): 10.5 µM; IC50 (8505C cells [3]; siRNA targeting p65/RelA): 5.15 µM
